Measurements published in patent US8143408B2, “N-(8-heteroaryltetrahydronaphtalene-2yl) or N-(5-heteroarylchromane-3-yl) carboxamide derivatives for the treatment of pain” (AstraZeneca AB, priority 2007, dated 2012).

Target: T1, Nav1.7 voltage-gated sodium channel (Homo sapiens, UniProt Q15858)
T1 construct: Gene(s) encoding the full-length protein of the voltage-gated sodium channel of interest are cloned and expressed; expressed in transfected cells
Assay: Whole-cell voltage clamp electrophysiology assay
Format: cell-based
Settings: cells stably expressing the voltage-gated sodium channel of interest
Description: Gene(s) encoding the full-length protein of the voltage-gated sodium channel of interest are cloned and expressed under a suitable promoter in a suitable cell line, as well known in the art. […] Suitable screening assays are as follows.
Electrophysiological studies can be performed using automated patch-clamp electrophysiology platforms, like IonWorks HT, IonWorks Quattro, PatchXpress, QPatch or any other suitable platform. […] Suitable extracellular and intracellular buffer for such experiments are applied according to the instructions given by the manufacturer of the automated patch-clamp platforms. Cells that express the voltage-gated sodium channel protein of interest are exposed to drugs through the pipetting system integrated in the platforms. A suitable voltage stimulus protocol is used to activate the voltage-gated sodium channel proteins of interest through depolarisation from a defined holding potential.
Electrophysiological studies can also be performed using the whole cell configuration of the standard patch clamp technique. In this assay, cells that express the voltage-gated sodium channel protein of interest are exposed to the drugs by conventional microperfusion systems and a suitable voltage stimulus protocol is used to activate the voltage-gated sodium channels.

T1 sequence (Q15858 whole entry): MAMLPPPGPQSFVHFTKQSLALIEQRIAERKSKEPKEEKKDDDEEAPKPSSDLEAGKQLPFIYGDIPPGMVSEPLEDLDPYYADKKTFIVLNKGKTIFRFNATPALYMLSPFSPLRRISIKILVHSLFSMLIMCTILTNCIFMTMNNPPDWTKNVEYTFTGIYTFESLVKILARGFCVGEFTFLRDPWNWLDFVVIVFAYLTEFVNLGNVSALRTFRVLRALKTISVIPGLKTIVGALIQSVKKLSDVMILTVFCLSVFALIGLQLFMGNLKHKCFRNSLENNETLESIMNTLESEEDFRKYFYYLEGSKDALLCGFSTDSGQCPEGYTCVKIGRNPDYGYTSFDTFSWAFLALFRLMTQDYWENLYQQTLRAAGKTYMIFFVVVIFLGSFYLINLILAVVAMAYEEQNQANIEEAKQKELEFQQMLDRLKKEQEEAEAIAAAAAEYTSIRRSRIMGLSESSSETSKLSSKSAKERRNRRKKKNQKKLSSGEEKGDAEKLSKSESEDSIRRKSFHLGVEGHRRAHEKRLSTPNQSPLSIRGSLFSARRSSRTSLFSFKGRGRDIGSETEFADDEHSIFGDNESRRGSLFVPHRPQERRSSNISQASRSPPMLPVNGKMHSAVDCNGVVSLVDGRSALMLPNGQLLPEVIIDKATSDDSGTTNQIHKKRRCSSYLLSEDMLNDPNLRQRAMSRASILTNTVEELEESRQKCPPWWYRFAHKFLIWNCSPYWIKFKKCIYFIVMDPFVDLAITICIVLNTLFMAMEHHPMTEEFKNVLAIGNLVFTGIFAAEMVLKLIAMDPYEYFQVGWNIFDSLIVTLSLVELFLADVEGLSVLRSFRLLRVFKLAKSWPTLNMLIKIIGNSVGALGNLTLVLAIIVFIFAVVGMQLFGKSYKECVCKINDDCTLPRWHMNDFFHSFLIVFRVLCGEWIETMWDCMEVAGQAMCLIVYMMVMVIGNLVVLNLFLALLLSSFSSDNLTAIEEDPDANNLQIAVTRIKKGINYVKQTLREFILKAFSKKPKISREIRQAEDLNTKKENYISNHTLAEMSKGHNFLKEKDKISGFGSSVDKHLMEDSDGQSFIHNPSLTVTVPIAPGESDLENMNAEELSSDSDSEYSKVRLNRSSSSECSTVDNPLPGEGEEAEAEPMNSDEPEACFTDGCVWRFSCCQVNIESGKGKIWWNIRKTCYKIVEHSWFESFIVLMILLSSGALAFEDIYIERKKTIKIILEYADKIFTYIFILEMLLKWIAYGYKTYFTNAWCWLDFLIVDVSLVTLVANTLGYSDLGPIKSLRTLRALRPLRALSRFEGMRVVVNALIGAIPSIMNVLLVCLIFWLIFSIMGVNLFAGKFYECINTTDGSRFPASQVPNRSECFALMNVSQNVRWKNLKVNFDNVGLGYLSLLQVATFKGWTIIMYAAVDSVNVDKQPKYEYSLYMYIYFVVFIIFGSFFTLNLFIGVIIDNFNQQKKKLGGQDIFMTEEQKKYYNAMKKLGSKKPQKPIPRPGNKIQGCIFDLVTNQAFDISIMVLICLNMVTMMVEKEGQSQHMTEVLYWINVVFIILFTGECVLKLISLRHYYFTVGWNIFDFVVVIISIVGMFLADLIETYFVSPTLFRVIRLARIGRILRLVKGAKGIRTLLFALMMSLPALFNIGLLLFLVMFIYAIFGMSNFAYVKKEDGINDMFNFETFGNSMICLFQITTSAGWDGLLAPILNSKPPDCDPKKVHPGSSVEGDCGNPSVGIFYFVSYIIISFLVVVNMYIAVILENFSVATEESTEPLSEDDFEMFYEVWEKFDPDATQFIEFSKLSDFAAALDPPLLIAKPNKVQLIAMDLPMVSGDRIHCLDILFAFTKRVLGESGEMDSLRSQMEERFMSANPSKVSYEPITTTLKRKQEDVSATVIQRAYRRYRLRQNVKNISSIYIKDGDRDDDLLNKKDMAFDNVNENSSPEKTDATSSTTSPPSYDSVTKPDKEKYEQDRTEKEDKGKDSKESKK

## O=C(N[C@@H]1COc2cccc(-c3ccncc3)c2C1)c1ccc(OC(F)(F)F)cc1 [Example 1, N-[(3S)-5-Pyridin-4-yl-3,4-dihydro-2H-chromen-3-yl]-4-(trifluoromethoxy)-benzamide]
  IC50: 398 nM

## CCCCOc1ccc(C(=O)N[C@@H]2COc3cccc(-c4ccncc4)c3C2)cc1 [Example 2, 4-Butoxy-N-[(3S)-5-pyridin-4-yl-3,4-dihydro-2H-chromen-3-yl]benzamide]
  IC50: 126 nM

## O=C(N[C@@H]1CCc2cccc(-c3ccncc3)c2C1)c1ccc(OS(=O)(=O)C(F)(F)F)cc1 [Example 3, 4-{[(2R)-8-Pyridin-4-yl-1,2,3,4-tetrahydronaphthalen-2-yl]carbamoyl}phenyl trifluoromethanesulfonate]
  IC50: 251 nM

## O=C(N[C@@H]1COc2cccc(-c3ccccn3)c2C1)c1ccc(OC(F)(F)F)cc1 [Example 5, N-[(3S)-5-Pyridin-2-yl-3,4-dihydro-2H-chromen-3-yl]-4-(trifluoromethoxy)-benzamide]
  IC50: 1580 nM

## Cn1cc(-c2cccc3c2C[C@H](NC(=O)c2ccc(OC(F)(F)F)cc2)CC3)cn1 [Example 6, N-[(2R)-8-(1-Methyl-1H-pyrazol-4-yl)-1,2,3,4-tetrahydronaphthalen-2-yl]-4-(trifluoromethoxy)-benzamide]
  IC50: 1000 nM

## Cn1cc(-c2cccc3c2C[C@H](NC(=O)c2ccc(OS(=O)(=O)C(F)(F)F)cc2)CC3)cn1 [Example 7, 4-{[(2R)-8-(1-Methyl-1H-pyrazol-4-yl)-1,2,3,4-tetrahydronaphthalen-2-yl]carbamoyl}phenyl trifluoromethanesulfonate]
  IC50: 200 nM

## Cc1nn(-c2ccccc2)nc1C(=O)N[C@@H]1CCc2cccc(-c3cnn(C)c3)c2C1 [Example 8, 5-Methyl-N-[(2R)-8-(1-methyl-1H-pyrazol-4-yl)-1,2,3,4-tetrahydronaphthalen-2-yl]-2-phenyl-2H-1,2,3-triazole-4-carboxamide]
  IC50: 1580 nM

## Cc1n[nH]c(C)c1-c1cccc2c1C[C@H](NC(=O)c1ccc(OC(F)(F)F)cc1)CC2 [Example 9, N-[(2R)-8-(3,5-Dimethyl-1H-pyrazol-4-yl)-1,2,3,4-tetrahydronaphthalen-2-yl]-4-(trifluoromethoxy)-benzamide]
  IC50: 6310 nM

## Cc1noc(C)c1-c1cccc2c1C[C@H](NC(=O)c1ccc(OC(F)(F)F)cc1)CC2 [Example 10, N-[(2R)-8-(3,5-Dimethylisoxazol-4-yl)-1,2,3,4-tetrahydronaphthalen-2-yl]-4-(trifluoromethoxy)-benzamide]
  IC50: 3980 nM

## Cc1noc(C)c1-c1cccc2c1C[C@H](NC(=O)c1ccc(OS(=O)(=O)C(F)(F)F)cc1)CC2 [Example 11, 4-{[(2R)-8-(3,5-Dimethylisoxazol-4-yl)-1,2,3,4-tetrahydronaphthalen-2-yl]carbamoyl}phenyl trifluoromethanesulfonate]
  IC50: 631 nM

## O=C(N[C@@H]1CCc2cccc(-c3ccncc3)c2C1)c1ccc(OCC(F)(F)F)nc1 [Example 12, N-[(2R)-8-pyridin-4-yl-1,2,3,4-tetrahydronaphthalen-2-yl]-6-(2,2,2-trifluoroethoxy)nicotinamide]
  IC50: 63.1 nM

## O=C(N[C@@H]1CCc2cccc(-c3ccncc3)c2C1)c1ccc(OCCC(F)(F)F)nc1 [Example 13, N-[(2R)-8-pyridin-4-yl-1,2,3,4-tetrahydronaphthalen-2-yl]-6-(3,3,3-trifluoropropoxy)nicotinamide]
  IC50: 39.8 nM

## CC(C)Oc1ccc(C(=O)N[C@@H]2CCc3cccc(-c4ccncc4)c3C2)cn1 [Example 14, 6-isopropoxy-N-[(2R)-8-pyridin-4-yl-1,2,3,4-tetrahydronaphthalen-2-yl]nicotin-amide]
  IC50: 251 nM

## O=C(N[C@@H]1CCc2cccc(-c3ccncc3)c2C1)c1ccc(OC2CCCC2)nc1 [Example 15, 6-(cyclopentyloxy)-N-[(2R)-8-pyridin-4-yl-1,2,3,4-tetrahydronaphthalen-2-yl]nicotin-amide]
  IC50: 25.1 nM

## COc1ccc(C(=O)N[C@@H]2CCc3cccc(-c4ccncc4)c3C2)c(OC)c1 [Example 16, 2,4-dimethoxy-N-[(2R)-8-pyridin-4-yl-1,2,3,4-tetrahydronaphthalen-2-yl]-benzamide]
  IC50: 2000 nM

## Cc1nn(-c2ccccc2)nc1C(=O)N[C@@H]1CCc2cccc(-c3ccncc3)c2C1 [Example 17, 5-methyl-2-phenyl-N-[(2R)-8-pyridin-4-yl-1,2,3,4-tetrahydronaphthalen-2-yl]-2H-1,2,3-triazole-4-carboxamide]
  IC50: 3980 nM

## O=C(N[C@@H]1COc2cccc(-c3ccncc3)c2C1)c1ccc(OCC(F)(F)F)nc1 [Example 18, N-[(3S)-5-pyridin-4-yl-3,4-dihydro-2H-chromen-3-yl]-6-(2,2,2-trifluoroethoxy)nicotinamide]
  IC50: 100 nM

## O=C(N[C@@H]1COc2cccc(-c3ccncc3)c2C1)c1ccc(OCCC(F)(F)F)nc1 [Example 19, N-[(3S)-5-pyridin-4-yl-3,4-dihydro-2H-chromen-3-yl]-6-(3,3,3-trifluoropropoxy)nicotin-amide]
  IC50: 79.4 nM

## CC(C)Oc1ccc(C(=O)N[C@@H]2COc3cccc(-c4ccncc4)c3C2)cn1 [Example 20, 6-isopropoxy-N-[(3S)-5-pyridin-4-yl-3,4-dihydro-2H-chromen-3-yl]nicotin-amide]
  IC50: 158 nM

## O=C(N[C@@H]1COc2cccc(-c3ccncc3)c2C1)c1ccc(OC2CCCC2)nc1 [Example 21, 6-(cyclopentyloxy)-N-[(3S)-5-pyridin-4-yl-3,4-dihydro-2H-chromen-3-yl]nicotin-amide]
  IC50: 63.1 nM

## COc1ccc(C(=O)N[C@@H]2COc3cccc(-c4ccncc4)c3C2)c(OC)c1 [Example 22, 2,4-dimethoxy-N-[(3S)-5-pyridin-4-yl-3,4-dihydro-2H-chromen-3-yl]benzamide]
  IC50: 6310 nM

## Cc1nn(-c2ccccc2)nc1C(=O)N[C@@H]1COc2cccc(-c3ccncc3)c2C1 [Example 23, 5-methyl-2-phenyl-N-[(3S)-5-pyridin-4-yl-3,4-dihydro-2H-chromen-3-yl]-2H-1,2,3-triazole-4-carboxamide]
  IC50: 1260 nM

## CC(C)COc1ccc(C(=O)N[C@@H]2COc3cccc(-c4ccncc4)c3C2)cn1 [Example 24, 6-isobutoxy-N-[(3S)-5-pyridin-4-yl-3,4-dihydro-2H-chromen-3-yl]nicotin-amide]
  IC50: 126 nM

## CCOc1ccc(C(=O)N[C@@H]2COc3cccc(-c4ccncc4)c3C2)cn1 [Example 25, 6-ethoxy-N-[(3S)-5-pyridin-4-yl-3,4-dihydro-2H-chromen-3-yl]nicotin-amide]
  IC50: 2000 nM

## O=C(N[C@@H]1COc2cccc(-c3ccncc3)c2C1)c1ccc(OCC(F)F)nc1 [Example 26, 6-(2,2-difluoroethoxy)-N-[(3S)-5-pyridin-4-yl-3,4-dihydro-2H-chromen-3-yl]nicotin-amide]
  IC50: 631 nM

## O=C(N[C@@H]1COc2cccc(-c3ccncc3)c2C1)c1ccc(OC(CF)CF)nc1 [Example 27, 6-[2-fluoro-1-(fluoromethyl)ethoxy]-N-[(3S)-5-pyridin-4-yl-3,4-dihydro-2H-chromen-3-yl]nicotin-amide]
  IC50: 631 nM

## O=C(N[C@@H]1COc2cccc(-c3ccncc3)c2C1)c1cnc(OC2CCCC2)nc1 [Example 28, 2-(cyclopentyloxy)-N-[(3S)-5-pyridin-4-yl-3,4-dihydro-2H-chromen-3-yl]Pyrimidine-5-carboxamide]
  IC50: 100 nM
